Key:
IKZF2 ZF2 = IKZF2 ZF2 (Homo sapiens, UniProt Q96SW2+Q9UKS7); experiment: Degradation reporter analysis of IKZF2 ZF2; type: cell-based
[1] = test system: endogenous, full-length WIZ; settings: WSU-DLCL2 and TMD8 cells; cited from earlier work
[2] = target: human C2H2 ZF library in HEK293T cells (Homo sapiens, UniProt Q9UKS7); experiment: C2H2 zinc finger library screen; type: cell-based; settings: 1 μM, 20 hours
[3] = test system: human C2H2 ZF library in HEK293T cells; experiment: C2H2 zinc finger library screen; type: cell-based; settings: FDR <0.01, 5,611 ZFs assayed, 1 μM, 20 hours
[4] = test system: ZFs that bound CRBN-pomalidomide in the biochemical assay; type: cell-based, human; settings: WIZ ZF7, cells
[5] = target: CRBN-pomalidomide (Alexa488DDB1ΔB-CRBN-pomalidomide-biotinIKZF1 ZF1-2-3) (Homo sapiens, UniProt Q96SW2)
CRBN-pomalidomide (Alexa488DDB1ΔB-CRBN-pomalidomide-biotinIKZF1 ZF1-2-3), sequence (Q96SW2 whole entry, stated change not applied): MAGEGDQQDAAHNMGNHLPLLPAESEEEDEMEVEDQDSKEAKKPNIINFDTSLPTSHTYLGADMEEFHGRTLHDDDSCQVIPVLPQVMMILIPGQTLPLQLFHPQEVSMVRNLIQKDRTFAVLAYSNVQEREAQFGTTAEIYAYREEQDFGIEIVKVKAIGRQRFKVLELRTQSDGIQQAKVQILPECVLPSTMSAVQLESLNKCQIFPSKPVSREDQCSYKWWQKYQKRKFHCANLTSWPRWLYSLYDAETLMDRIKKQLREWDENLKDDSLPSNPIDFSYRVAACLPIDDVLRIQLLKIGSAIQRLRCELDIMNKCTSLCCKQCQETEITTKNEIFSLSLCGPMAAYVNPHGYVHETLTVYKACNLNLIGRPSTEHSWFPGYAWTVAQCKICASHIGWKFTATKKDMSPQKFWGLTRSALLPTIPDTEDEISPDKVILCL

IKZF2 ZF2, sequence (Q9UKS7 140-162 limits assumed): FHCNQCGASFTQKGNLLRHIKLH
IKZF2 ZF2, sequence (Q96SW2 whole entry): as the sequence (Q96SW2 whole entry, stated change not applied) above
IKZF2 ZF2, sequence (Q16531 2-1140 partner limits assumed): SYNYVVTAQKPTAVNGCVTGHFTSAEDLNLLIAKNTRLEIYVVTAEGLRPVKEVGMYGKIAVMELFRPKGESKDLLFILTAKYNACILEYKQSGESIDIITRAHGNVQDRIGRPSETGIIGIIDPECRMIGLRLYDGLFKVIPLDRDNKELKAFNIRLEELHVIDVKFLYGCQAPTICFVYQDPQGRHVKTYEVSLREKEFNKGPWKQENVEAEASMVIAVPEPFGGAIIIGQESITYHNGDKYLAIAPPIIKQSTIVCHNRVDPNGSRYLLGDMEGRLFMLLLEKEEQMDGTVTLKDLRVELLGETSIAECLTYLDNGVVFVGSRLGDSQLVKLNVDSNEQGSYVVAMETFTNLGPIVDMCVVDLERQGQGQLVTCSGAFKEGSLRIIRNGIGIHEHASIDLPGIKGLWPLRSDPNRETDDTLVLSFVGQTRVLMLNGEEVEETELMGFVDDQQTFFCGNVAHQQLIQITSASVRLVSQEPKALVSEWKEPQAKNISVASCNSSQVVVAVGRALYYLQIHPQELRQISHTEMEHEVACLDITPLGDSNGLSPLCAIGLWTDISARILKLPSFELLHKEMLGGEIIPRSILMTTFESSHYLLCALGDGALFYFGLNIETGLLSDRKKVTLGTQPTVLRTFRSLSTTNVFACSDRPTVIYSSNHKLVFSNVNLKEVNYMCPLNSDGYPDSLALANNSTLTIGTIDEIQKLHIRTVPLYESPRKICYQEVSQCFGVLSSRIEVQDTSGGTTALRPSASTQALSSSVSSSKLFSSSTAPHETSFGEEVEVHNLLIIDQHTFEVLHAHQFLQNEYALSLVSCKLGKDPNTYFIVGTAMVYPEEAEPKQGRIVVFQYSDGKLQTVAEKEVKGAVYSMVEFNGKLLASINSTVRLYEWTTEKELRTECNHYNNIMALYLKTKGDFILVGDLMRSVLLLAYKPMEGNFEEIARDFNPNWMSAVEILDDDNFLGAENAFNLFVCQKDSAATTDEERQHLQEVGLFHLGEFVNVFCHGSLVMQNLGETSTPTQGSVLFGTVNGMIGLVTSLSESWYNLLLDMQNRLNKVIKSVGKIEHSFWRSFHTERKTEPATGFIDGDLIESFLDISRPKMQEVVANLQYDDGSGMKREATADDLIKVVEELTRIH
human C2H2 ZF library in HEK293T cells (Homo sapiens, UniProt Q9UKS7), sequence (Q96SW2 whole entry partner): as the sequence (Q96SW2 whole entry, stated change not applied) above

Compound	degradation of IKZF2 ZF2 (in words) (IKZF2 ZF2)	degradation of endogenous, full-length WIZ [1]	degradation of IKZF2 ZF2 in the C2H2 ZF library screen [2]	degradation of the IKZF2 ZF2 reporter (IKZF2 ZF2; validation experiments)	number of C2H2 ZFs depleted [3]	degradation of WIZ ZF7 in the degradation reporter [4]	factor of decrease in binding affinity, ZF2-ZF1 versus ZF2-ZF3 [5]
Cc1nc2cccc(N)c2c(=O)n1C1CCC(=O)NC1=O (stereo not shown) [CC-122]	not degraded	confirmed degradation	–	–	–	–	–
O=C1CC[C@H](N2Cc3c(OCc4ccc(CN5CCOCC5)cc4)cccc3C2=O)C(=O)N1 [CC-220]	efficiently degraded	–	selectively degraded	more than 40%	–	–	–
Nc1cccc2c1CN(C1CCC(=O)NC1=O)C2=O (stereo not shown) [lenalidomide]	–	confirmed degradation	–	–	–	–	–
Nc1cccc2c1C(=O)N(C1CCC(=O)NC1=O)C2=O (stereo not shown) [pomalidomide]	not degraded	–	–	–	11	partial degradation	6

Reference: PMC6326779 (Science (New York, N.Y.), 2018)
